Patent US20200017496A1 (priority 2017, published 2020)
Like-named read-outs stand apart in the source and are kept apart here.

System: Escherichia coli (ECO) isolates
Test: MIC of compounds alone and combined with antibacterials, broth microdilution (CLSI)
Format: cell-based
Conditions: for MIC ATB in combination: AF1 @ 4 μg/mL; for MIC: Escherichia coli
Protocol: Method 2: MIC of Compounds Alone and Combined with Antibacterials Against Bacterial Isolates.
Compounds of the present invention were assessed against genotyped bacterial strains (Table 3, 4) alone or in combination with an antibacterial (Table 2). […] Log phase bacterial suspensions were adjusted to a final density of 5·10^5 CFU/mL in cation-adjusted Mueller-Hinton broth (ca-MHB; Becton-Dickinson and Company) and added to each well (98 μL). Microplates were incubated for 16-20 h at 35° C. in ambient air. The MIC of the compounds was defined as the lowest concentration of said compounds that prevented bacterial growth as read by visual inspection. The MIC of ATB at each compound concentration was defined as the lowest concentration of ATB that prevented bacterial growth as read by visual inspection.

CO/N=C(\C(=O)N[C@@H]1C(=O)N2C(C(=O)O)=C(COC(N)=O)CS[C@H]12)c1ccco1 [FUR, Cefuroxime]
8 µg/mL: MIC ATB in combination (ECO 190457) | MIC ATB in combination (ECO RGN238) | MIC ATB in combination (ECO UFR61O) | MIC ATB in combination (ECO UFR62) | MIC ATB in combination (ECO UFR175) | MIC ATB in combination (ECO UFR187) | MIC ATB in combination (ECO UFR190) | MIC ATB in combination (ECO UFR191) | MIC ATB in combination (ECO UFR211) | MIC (strain ECO 131119 (TEM-1, OXA-48), ATB alone)
32 µg/mL: MIC ATB in combination (ECO UFR18) | MIC ATB in combination (ECO UFR86) | MIC (strain ECO 5302 (TEM-1, OXA-1), ATB alone)
> 512 µg/mL: MIC (strain ECO 190317 (TEM-1, SHV-12, CTX-M-15, OXA-1), ATB alone)
2 µg/mL: MIC ATB in combination (ECO 190549) | MIC ATB in combination (ECO 200159) | MIC ATB in combination (ECO 200259) | MIC ATB in combination (ECO 260508) | MIC ATB in combination (ECO UFR15) | MIC ATB in combination (ECO UFR174) | MIC ATB in combination (ECO UFR189) | MIC ATB in combination (ECO UFR207) | MIC ATB in combination (ECO UFR210)
> 256 µg/mL: MIC | MIC (strain ECO 180070 (TEM-1, CTX-M-15), ATB alone, read-out: MIC) | MIC (strain ECO 190314 (CTX-M-1), ATB alone, read-out: MIC) | MIC (strain ECO 190457 (CTX-M-15, OXA-1), ATB alone, read-out: MIC) | MIC (strain ECO 190549 (CTX-M-1), ATB alone, read-out: MIC) | MIC (strain ECO 200159 (TEM-1, CTX-M-14), ATB alone, read-out: MIC) | MIC (strain ECO 200259 (CTX-M-14), ATB alone, read-out: MIC) | MIC (strain ECO 200344 (CTX-M-1), ATB alone, read-out: MIC) | MIC (strain ECO 260096 (CTX-M-132), ATB alone, read-out: MIC) | MIC (strain ECO 260304 (CTX-M-15), ATB alone, read-out: MIC) | MIC (strain ECO 260508 (TEM-1, CTX-M-15, OXA-1), ATB alone, read-out: MIC) | MIC (strain ECO UFR16 (TEM-1, CTX-M-15, OXA-1, OXA-48), ATB alone, read-out: MIC) | MIC (strain ECO UFR17 (TEM-1, CTX-M-15, CMY-2, OXA-1, OXA-181), ATB alone, read-out: MIC) | MIC (strain ECO UFR18 (CTX-M-15, OXA-204), ATB alone, read-out: MIC) | MIC (strain ECO UFR19 (CTX-M-15, CMY-2, OXA-1, OXA-204), ATB alone, read-out: MIC) | MIC (strain ECO UFR20 (SHV-1, CTX-M-15, OXA-1, OXA-232), ATB alone, read-out: MIC) | MIC (strain ECO UFR74 (SHV-1, DHA-1), ATB alone, read-out: MIC) | MIC (strain ECO UFR184 (CTX-M-15, CMY-4, OXA-1, OXA-204), ATB alone, read-out: MIC) | MIC (strain ECO UFR185 (OXA-48), ATB alone, read-out: MIC) | MIC (strain ECO UFR186 (TEM-1, CTX-M-14, OXA-48), ATB alone, read-out: MIC) | MIC (strain ECO UFR187 (CTX-M-15, OXA-48), ATB alone, read-out: MIC) | MIC (strain ECO UFR189 (TEM-1, CTX-M-15, OXA-48), ATB alone, read-out: MIC) | MIC (strain ECO UFR190 (CTX-M-24, OXA-48), ATB alone, read-out: MIC) | MIC (strain ECO UFR191 (TEM-1, CTX-M-24, OXA-48), ATB alone, read-out: MIC) | MIC (strain ECO UFR207 (CTX-M-15), ATB alone, read-out: MIC) | MIC (strain ECO UFR208 (SHV-12), ATB alone, read-out: MIC) | MIC (strain ECO UFR209 (TEM-1, CTX-M-15), ATB alone, read-out: MIC) | MIC (strain ECO UFR210 (SHV-12), ATB alone, read-out: MIC) | MIC (strain ECO UFR212 (CMY-2), ATB alone, read-out: MIC) | MIC (strain ECO UFR218 (TEM-1, SHV-1, CTX-M-15), ATB alone, read-out: MIC)
64 µg/mL: MIC ATB in combination (ECO UFR20) | MIC ATB in combination (ECO UFR184) | MIC (strain ECO UFR86 (ompC-, ompF-), ATB alone, read-out: MIC)
16 µg/mL: MIC ATB in combination (ECO UFR16) | MIC ATB in combination (ECO UFR19) | MIC ATB in combination (ECO UFR74) | MIC ATB in combination (ECO UFR186) | MIC (strain ECO 4133 (TEM-30, OXA-1), ATB alone) | MIC (strain ECO RGN238 (OXA-1), ATB alone) | MIC (strain ECO UFR15 (TEM-1, OXA-48), ATB alone)
4 µg/mL: MIC ATB in combination (ECO 5302) | MIC ATB in combination (ECO 131119) | MIC ATB in combination (ECO 180070) | MIC ATB in combination (ECO 190314) | MIC ATB in combination (ECO 190317) | MIC ATB in combination (ECO 200344) | MIC ATB in combination (ECO 260096) | MIC ATB in combination (ECO 260304) | MIC ATB in combination (ECO UFR176) | MIC ATB in combination (ECO UFR209) | MIC ATB in combination (ECO UFR218)
